Measured values: patent publication US11352350B2, “IRAK degraders and uses thereof” (Kymera Therapeutics, Inc., priority 2018, dated 2022)
Like-named read-outs stand apart in the source and are kept apart here.

Tests used:
IRAK4 = IRAK4 (Homo sapiens (Human), UniProt Q9NWZ3); assay: IRAK4 MSD degradation in OCI-LY10; format: cell-based
Summary of the method: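 OCI-LY10 cells treated with 8-point 1:3 dilutions (top 1 to 10 μM final) for 4 to 24 h at 37° C. Lysate IRAK4 measured by MSD sandwich immunoassay (2H9 capture, Y279 detection, SULFO-TAG anti-rabbit). DC50 from three-parameter logistic fit.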

OCI-LY10 = assay: CTG Cell Viability Assay - OCI-LY10; format: cell-based, human; conditions: OCI-LY10, 4 days, read-out: CTG Cell Viability Assay - OCI-LY10: Average external-IC50
Summary of the method: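 OCI-LY10 cells exposed to 9-dose, 1:3 dilutions from 10 μM top (0.2% DMSO) for 4 days at 37° C, 5% CO2. Viability by CellTiter-Glo luminescence; IC50 from three-parameter logistic fit.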

[1] = OCI-LY10, 4 hrs, MSD, read-out: IRAK4 MSD degradation in OCI-LY10 at 4 hrs: Average external-Abs DC50
[2] = OCI-LY10, 24 hrs, MSD, read-out: IRAK4 MSD degradation in OCI-LY10 at 24 hrs: Average external-Abs DC50
[3] = OCI-LY10, 4 hrs, read-out: IRAK4 MSD degradation in OCI-LY10 at 4 hrs: DC50
[4] = OCI-LY10, 24 hrs, read-out: IRAK4 MSD degradation in OCI-LY10 at 24 hrs: DC50

Sequence of IRAK4 (Q9NWZ3 whole entry): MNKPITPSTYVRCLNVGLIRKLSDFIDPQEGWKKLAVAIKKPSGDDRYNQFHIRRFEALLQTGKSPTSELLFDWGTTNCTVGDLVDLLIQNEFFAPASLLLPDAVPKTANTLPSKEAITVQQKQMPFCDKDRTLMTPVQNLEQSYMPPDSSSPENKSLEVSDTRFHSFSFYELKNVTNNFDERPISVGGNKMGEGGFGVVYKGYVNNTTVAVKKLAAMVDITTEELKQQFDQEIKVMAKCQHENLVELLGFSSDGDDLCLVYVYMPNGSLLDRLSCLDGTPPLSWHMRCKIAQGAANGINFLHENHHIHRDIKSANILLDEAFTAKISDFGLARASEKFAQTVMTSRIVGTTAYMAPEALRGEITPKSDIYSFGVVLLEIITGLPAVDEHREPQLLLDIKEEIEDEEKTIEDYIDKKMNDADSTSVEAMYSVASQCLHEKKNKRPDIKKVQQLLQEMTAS

Compound | DC50 (IRAK4; [1]) | IC50 (OCI-LY10; Homo sapiens, OCI-Ly10, 96 h) | DC50 (IRAK4; [2]) | IC50 (OCI-LY10) | DC50 (IRAK4; [3]) | DC50 (IRAK4; [4])
O=C1CCC(N2C(=O)c3cccc(CCCOC4CCN(C[C@H]5CC[C@H](n6cc(NC(=O)c7cnn8ccc(N9CCOCC9)nc78)c(C(F)F)n6)CC5)CC4)c3C2=O)C(=O)N1 (some centres unmarked) [I-207] | 10 to 100 nM | > 1000 nM |  |  |  | 
CN(CCCc1cccc2c1n(C)c(=O)n2C1CCC(=O)NC1=O)C[C@H]1CC[C@H](n2cc(NC(=O)c3coc(-c4ccnc(NCC5CC5)c4)n3)c(C(F)F)n2)CC1 (some centres unmarked) [I-130] | < 10 nM | > 1000 nM |  |  |  | 
O=C1CCC(N2C(=O)c3cccc(CCCOC4CCN(C[C@H]5CC[C@H](n6cc(NC(=O)c7coc(-c8ccnc(NCC9CC9)c8)n7)c(C(F)F)n6)CC5)CC4)c3C2=O)C(=O)N1 (some centres unmarked) [I-171] | 10 to 100 nM | 100 to 500 nM |  |  |  | 
O=C1CCC(N2C(=O)c3cccc(NCCCOC[C@@H]4CN(C[C@H]5CC[C@H](n6cc(NC(=O)c7coc(-c8ccnc(NCC9CC9)c8)n7)c(C(F)F)n6)CC5)CCO4)c3C2=O)C(=O)N1 (some centres unmarked) [I-353] | 10 to 100 nM | 100 to 500 nM | 10 to 100 nM |  |  | 
Cn1c(=O)n(C2CCC(=O)NC2=O)c2cccc(CCCOC3CCN([C@H]4CC[C@@H](Nc5ncnc6ccc(C#N)cc56)CC4)CC3)c21 (some centres unmarked) [I-305, 4-[[4-[4-[3-[1-(2,6-dioxo-3-piperidyl)-3-methyl-2-oxo-benzimidazol-4-yl]propoxy]-1-piperidyl]cyclohexyl]amino]quinazoline-6-carbonitrile] | > 1000 nM | > 1000 nM | > 1000 nM |  |  | 
CN1C(=O)CCC(n2c(=O)n(C)c3c(CCCOC4CCN(C[C@H]5CC[C@H](n6cc(NC(=O)c7cnn8ccc(N9CCOCC9)nc78)c(C(F)F)n6)CC5)CC4)cccc32)C1=O (some centres unmarked) [I-195] | 100 to 1000 nM | > 1000 nM |  |  |  | 
CN(CCCOCCCNC(=O)c1ccc(CNCc2ccc(-c3ccc4c(cnn4CC4CC4)c3)cc2)cc1)C(=O)[C@H]1CC[C@H](n2cc(NC(=O)c3coc(-c4ccnc(NCC5CC5)c4)n3)c(C(F)F)n2)CC1 [I-132] | > 1000 nM | > 1000 nM | > 1000 nM |  |  | 
O=C1CCC(N2C(=O)c3cccc(OCCCOC4CCN(C[C@H]5CC[C@H](n6cc(NC(=O)c7cnn8ccc(N9CCOCC9)nc78)c(C(F)F)n6)CC5)CC4)c3C2=O)C(=O)N1 (some centres unmarked) [I-297] | 10 to 100 nM |  |  | > 1000 nM |  | 
O=C1CCC(N2C(=O)c3cccc(OCCCOC4CCN(C[C@H]5CC[C@H](n6cc(NC(=O)c7cnn8ccc(N9CCOCC9)nc78)c(C(F)F)n6)CC5)CC4)c3C2=O)C(=O)N1 (some centres unmarked) [I-209] | 10 to 100 nM | > 1000 nM | < 10 nM |  |  | 
Cn1c(=O)n(C2CCC(=O)NC2=O)c2cccc(CCCOCCCN3CCC(n4cc(NC(=O)c5cnn6ccc(N7CCNCC7)nc56)c(C(F)F)n4)CC3)c21 (centres unmarked) [I-180] | 10 to 100 nM | > 1000 nM |  |  |  | 
CN(CCCOCCCNc1cccc2c1C(=O)N(C1CCC(=O)NC1=O)C2=O)C[C@H]1CC[C@H](n2cc(N(C)C(=O)c3coc(-c4ccnc(NCC5CC5)c4)n3)c(C(F)F)n2)CC1 (some centres unmarked) [I-401] | 100 to 1000 nM | 500 to 1000 nM | > 1000 nM |  |  | 
O=C1CCC(N2C(=O)c3cccc(NCCCOC[C@H]4CC[C@H](n5cc(NC(=O)c6cnn7ccc(N8C[C@H]9C[C@@H]8CO9)nc67)c(C(F)F)n5)CC4)c3C2=O)C(=O)N1 (some centres unmarked) [I-375] | > 1000 nM | 500 to 1000 nM |  |  |  | 
CN(C[C@H]1CC[C@H](n2cc(NC(=O)c3cnn4ccc(NCC5CC5)nc34)c(C(F)F)n2)CC1)[C@H]1CC[C@H](Nc2cccc3c2C(=O)N(C2CCC(=O)NC2=O)C3=O)CC1 (some centres unmarked) [I-453] |  | 50 to 100 nM |  |  | 10 to 100 nM | < 10 nM
CN(CC1(CNc2cccc3c2C(=O)N(C2CCC(=O)NC2=O)C3=O)CCC1)C[C@H]1CC[C@H](n2cc(NC(=O)c3cnn4ccc(N5C[C@H]6C[C@@H]5CO6)nc34)c(C(F)F)n2)CC1 (some centres unmarked) [I-491] |  | > 1000 nM |  |  | 100 to 1000 nM | > 1000 nM
NC(=O)c1nn([C@H]2CC[C@H](C(=O)NCCOCCOCCNc3cccc4c3C(=O)N(C3CCC(=O)NC3=O)C4=O)CC2)cc1NC(=O)c1coc(-c2ccnc(NCC(F)(F)F)c2)n1 (single isomer, unassigned) [I-13, N-(3-carbamoyl-1-((1r,4r)-4-((2-(2-(2-((2-(2,6-dioxopiperidin-3-yl)-1,3-dioxoisoindolin-4-yl)amino)ethoxy)ethoxy)ethyl)carbamoyl)cyclohexyl)-1H-pyrazol-4-yl)-2-(2-((2,2,2-trifluoroethyl)amino)pyridin-4-yl)oxazole-4-carboxamide] | > 1000 nM | > 1000 nM |  |  |  | 
CN(CCCOCCCNc1cccc2c1C(=O)N(C1CCC(=O)NC1=O)C2=O)Cc1ccc(-n2cc(NC(=O)c3coc(-c4ccnc(NCC5CC5)c4)n3)c(C(F)F)n2)cc1 (centres unmarked) [I-392] | 100 to 1000 nM | 100 to 500 nM | 10 to 100 nM |  |  | 
CN(CCN1CCN(c2cccc3c2C(=O)N(C2CCC(=O)NC2=O)C3=O)CC1)C[C@H]1CC[C@H](n2cc(NC(=O)C3CNN4C=CC(N5CCOCC5)=NC34)c(C(F)F)n2)CC1 (some centres unmarked) [I-224] | 100 to 1000 nM | > 1000 nM |  |  |  | 
CN(CCN1CCO[C@@H](CNc2cccc3c2C(=O)N(C2CCC(=O)NC2=O)C3=O)C1)C[C@H]1CC[C@H](n2cc(NC(=O)c3cnn4ccc(N5C[C@H]6C[C@@H]5CO6)nc34)c(C(F)F)n2)CC1 (some centres unmarked) [I-500] |  | 50 to 100 nM |  |  | 100 to 1000 nM | 10 to 100 nM
CN(CCCOCCCN(C)C(=O)c1ccc(CNCc2ccc(-c3ccc4c(cnn4CC4CC4)c3)cc2)cc1)C[C@H]1CC[C@H](n2cc(NC(=O)c3coc(-c4ccnc(NCC5CC5)c4)n3)c(C(F)F)n2)CC1 [I-133] | > 1000 nM | > 1000 nM | > 1000 nM |  |  | 
O=C1CCC(N2C(=O)c3cccc(NCC4CCC5(CC4)CN(C[C@H]4CC[C@H](n6cc(NC(=O)c7cnn8ccc(N9C[C@H]%10C[C@@H]9CO%10)nc78)c(C(F)F)n6)CC4)C5)c3C2=O)C(=O)N1 (some centres unmarked) [I-552] |  | < 50 nM |  |  | 100 to 1000 nM | 
O=C1CCC(N2C(=O)c3cccc(NCCCOC4CCN(Cc5ccc(-n6cc(NC(=O)c7cnn8ccc(N9CCOCC9)nc78)c(C(F)F)n6)cc5)CC4)c3C2=O)C(=O)N1 (centres unmarked) [I-403] | > 1000 nM | 50 to 100 nM | 10 to 100 nM |  |  | 
C[C@H]1CN(c2ccn3ncc(C(=O)Nc4cn([C@H]5CC[C@H](CN6CCC(OCCCc7cccc8c7n(C)c(=O)n8C7CCC(=O)NC7=O)CC6)CC5)nc4C(F)F)c3n2)C[C@H](C)O1 (some centres unmarked) [I-285] | 10 to 100 nM | > 1000 nM |  |  |  | 
CN(CCOCCNCc1cccc2c1n(C)c(=O)n2C1CCC(=O)NC1=O)C[C@H]1CC[C@H](n2cc(NC(=O)c3coc(-c4ccnc(NCC5CC5)c4)n3)c(C(F)F)n2)CC1 (some centres unmarked) [I-237] | < 10 nM | > 1000 nM |  |  |  | 
CC(C)[C@@H](CS(=O)(=O)C(C)C)N1C(=O)[C@@](C)(CC(=O)N2CCC(CCN(C)C[C@H]3CC[C@H](n4cc(NC(=O)c5coc(-c6ccnc(NCC7CC7)c6)n5)c(C(F)F)n4)CC3)CC2)C[C@H](c2cccc(Cl)c2)[C@H]1c1ccc(Cl)cc1 [I-147] | > 1000 nM | > 1000 nM | > 1000 nM |  |  | 
O=C1CCC(N2C(=O)c3cccc(NCCCOCCCN4CCC(n5cc(NC(=O)c6cnn7ccc(N8CCOCC8)nc67)c(C(F)F)n5)CC4)c3C2=O)C(=O)N1 (centres unmarked) [I-226] | 100 to 1000 nM | < 50 nM | 10 to 100 nM |  |  | 
O=C1CCC(N2C(=O)c3cccc(NCCCOC4CCN(C[C@H]5CC[C@H](n6cc(NC(=O)c7cnn8ccc(N9CC%10CC(C9)O%10)nc78)c(C(F)F)n6)CC5)CC4)c3C2=O)C(=O)N1 (some centres unmarked) [I-344] | 100 to 1000 nM | < 50 nM |  |  |  | 
